Reference: ChEMBL document CHEMBL1201862, “PubChem BioAssay data set” (2004)
Active and inactive are the calls of the source.

Columns and labels:
INS1 = experiment: INS-1E survival protection against cytokine death – cell-based, luminescence, retest, dose response (AID 449756); type: functional; details: Rattus norvegicus, INS1;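 further: cell death triggered by IL-1 beta plus TNF-alpha plus IFN-gamma mixture; protective hits raise ATP signal compared with cytokine alone wells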
[1] = target: Induced myeloid leukemia cell differentiation protein Mcl-1 (Homo sapiens, UniProt Q07820); type: functional
Sequence of Induced myeloid leukemia cell differentiation protein Mcl-1 (Q07820 whole entry): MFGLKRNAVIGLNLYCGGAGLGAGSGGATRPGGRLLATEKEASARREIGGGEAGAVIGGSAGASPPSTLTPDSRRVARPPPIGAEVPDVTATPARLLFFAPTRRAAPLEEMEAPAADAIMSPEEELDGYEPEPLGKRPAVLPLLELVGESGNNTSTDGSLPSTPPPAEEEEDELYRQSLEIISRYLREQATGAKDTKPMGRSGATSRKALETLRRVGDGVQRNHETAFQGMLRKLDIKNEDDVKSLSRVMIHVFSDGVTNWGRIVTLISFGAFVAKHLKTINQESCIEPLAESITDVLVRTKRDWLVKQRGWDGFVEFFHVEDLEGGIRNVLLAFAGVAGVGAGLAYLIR

[2] = target: Serine/threonine-protein phosphatase (Homo sapiens, UniProt Q9BPW0); experiment: inhibition of protein phosphatase 5 activity – biochemical, fluorescence, dose response (AID 2395)
Sequence of Serine/threonine-protein phosphatase (Q9BPW0 whole entry): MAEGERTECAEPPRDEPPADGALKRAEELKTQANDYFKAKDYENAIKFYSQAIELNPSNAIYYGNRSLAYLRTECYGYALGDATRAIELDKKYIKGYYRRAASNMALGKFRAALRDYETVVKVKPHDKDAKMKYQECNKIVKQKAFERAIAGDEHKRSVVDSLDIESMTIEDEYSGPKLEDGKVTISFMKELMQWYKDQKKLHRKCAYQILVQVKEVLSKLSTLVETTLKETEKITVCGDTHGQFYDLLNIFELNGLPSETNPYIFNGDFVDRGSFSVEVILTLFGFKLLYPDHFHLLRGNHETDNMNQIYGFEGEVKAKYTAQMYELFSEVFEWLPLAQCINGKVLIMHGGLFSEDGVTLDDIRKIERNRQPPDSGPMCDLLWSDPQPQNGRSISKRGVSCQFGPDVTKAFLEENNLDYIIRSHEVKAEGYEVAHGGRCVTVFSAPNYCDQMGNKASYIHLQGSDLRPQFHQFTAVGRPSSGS

[3] = target: Mitochondrial peptide methionine sulfoxide reductase (Bos taurus, UniProt P54149); experiment: Absorbance-based biochemical high throughput dose response assay for activators of Methionine sulfoxide reductase A (MsrA).; type: functional
Sequence of Mitochondrial peptide methionine sulfoxide reductase (P54149 whole entry): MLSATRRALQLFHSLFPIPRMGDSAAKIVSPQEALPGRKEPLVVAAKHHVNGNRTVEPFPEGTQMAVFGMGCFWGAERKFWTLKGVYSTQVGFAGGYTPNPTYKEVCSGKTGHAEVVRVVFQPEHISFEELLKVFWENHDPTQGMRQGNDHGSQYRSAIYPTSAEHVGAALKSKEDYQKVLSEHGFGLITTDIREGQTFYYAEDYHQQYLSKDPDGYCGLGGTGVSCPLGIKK

[4] = target: Serine/threonine-protein phosphatase PP1-alpha catalytic subunit (Homo sapiens, UniProt P62136); experiment: inhibition of protein phosphatase 1 activity – biochemical, fluorescence, dose response (AID 2394)
Sequence of Serine/threonine-protein phosphatase PP1-alpha catalytic subunit (P62136 whole entry): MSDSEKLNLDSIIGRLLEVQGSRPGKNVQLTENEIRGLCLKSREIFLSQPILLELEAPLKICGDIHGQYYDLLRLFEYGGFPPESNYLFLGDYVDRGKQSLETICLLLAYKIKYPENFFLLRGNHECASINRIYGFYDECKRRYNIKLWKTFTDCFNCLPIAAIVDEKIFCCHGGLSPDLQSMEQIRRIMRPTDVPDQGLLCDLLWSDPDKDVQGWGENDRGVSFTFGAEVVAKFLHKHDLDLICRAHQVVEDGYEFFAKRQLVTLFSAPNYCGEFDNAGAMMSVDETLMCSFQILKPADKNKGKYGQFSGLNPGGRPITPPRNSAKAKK

[5] = target: E3 ubiquitin-protein ligase Mdm2 (Homo sapiens, UniProt Q00987); experiment: MDM2-luc reporter signal enhancers, multi-concentration potency testing, MDM2 ubiquitin-protein ligase inhibitor program, whole-cell format, luminescence detection, 384-well microplate (AID 1394); type: functional;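 further: MDM2 E3 inhibitors raise luminescence so EC50 is for signal enhancement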
Sequence of E3 ubiquitin-protein ligase Mdm2 (Q00987 whole entry): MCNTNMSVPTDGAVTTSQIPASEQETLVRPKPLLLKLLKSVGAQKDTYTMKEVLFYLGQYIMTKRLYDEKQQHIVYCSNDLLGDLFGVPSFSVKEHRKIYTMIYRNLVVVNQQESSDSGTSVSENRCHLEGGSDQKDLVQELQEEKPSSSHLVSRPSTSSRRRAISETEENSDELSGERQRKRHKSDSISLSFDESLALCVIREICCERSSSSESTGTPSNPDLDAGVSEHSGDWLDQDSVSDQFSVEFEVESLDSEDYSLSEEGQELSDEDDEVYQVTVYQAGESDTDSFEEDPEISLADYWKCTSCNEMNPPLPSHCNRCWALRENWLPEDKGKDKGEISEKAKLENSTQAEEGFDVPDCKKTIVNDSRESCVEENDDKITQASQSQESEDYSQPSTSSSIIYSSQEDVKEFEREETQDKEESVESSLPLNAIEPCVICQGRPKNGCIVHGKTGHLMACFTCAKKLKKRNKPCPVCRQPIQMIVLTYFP

[6] = target: Voltage-gated inwardly rectifying potassium channel KCNH2 (Homo sapiens, UniProt Q12809); experiment: concentration-dependent hERG rescue from blockers – cell-based, thallium flux, dose response (AID 2121); type: ADME
Sequence of Voltage-gated inwardly rectifying potassium channel KCNH2 (Q12809 whole entry): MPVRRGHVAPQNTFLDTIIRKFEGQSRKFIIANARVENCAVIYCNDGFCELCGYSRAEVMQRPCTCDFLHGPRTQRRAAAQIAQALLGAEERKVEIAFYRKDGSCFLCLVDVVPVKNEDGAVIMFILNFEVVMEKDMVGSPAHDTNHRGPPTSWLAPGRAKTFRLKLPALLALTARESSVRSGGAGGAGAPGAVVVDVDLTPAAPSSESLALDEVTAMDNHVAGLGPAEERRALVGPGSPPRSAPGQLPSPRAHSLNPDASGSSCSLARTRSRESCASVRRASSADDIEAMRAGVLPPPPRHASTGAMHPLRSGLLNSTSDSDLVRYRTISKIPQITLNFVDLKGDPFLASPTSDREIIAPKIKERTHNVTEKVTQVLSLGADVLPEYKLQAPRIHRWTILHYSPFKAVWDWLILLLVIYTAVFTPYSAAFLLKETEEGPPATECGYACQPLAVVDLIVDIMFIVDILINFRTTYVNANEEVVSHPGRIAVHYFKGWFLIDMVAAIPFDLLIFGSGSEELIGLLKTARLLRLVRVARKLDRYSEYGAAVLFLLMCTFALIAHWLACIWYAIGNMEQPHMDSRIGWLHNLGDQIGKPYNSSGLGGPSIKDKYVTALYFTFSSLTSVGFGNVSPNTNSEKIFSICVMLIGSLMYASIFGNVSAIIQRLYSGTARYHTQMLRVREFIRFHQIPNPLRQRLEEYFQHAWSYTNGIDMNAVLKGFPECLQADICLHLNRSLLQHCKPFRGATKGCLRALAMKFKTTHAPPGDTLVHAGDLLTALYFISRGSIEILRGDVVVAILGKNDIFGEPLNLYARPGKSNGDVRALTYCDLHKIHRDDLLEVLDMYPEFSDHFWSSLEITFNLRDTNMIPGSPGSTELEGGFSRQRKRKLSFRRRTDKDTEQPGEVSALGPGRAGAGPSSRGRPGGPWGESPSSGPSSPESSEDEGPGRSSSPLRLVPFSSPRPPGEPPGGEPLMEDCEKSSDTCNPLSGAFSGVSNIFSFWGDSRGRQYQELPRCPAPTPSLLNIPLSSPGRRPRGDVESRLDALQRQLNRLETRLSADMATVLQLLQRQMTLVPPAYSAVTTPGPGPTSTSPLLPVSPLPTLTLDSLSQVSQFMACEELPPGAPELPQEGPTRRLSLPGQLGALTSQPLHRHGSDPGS

Streptococcus = experiment: GAS UMAA2166 growth inhibition – luminescence, BacTiterGlo, counter-screen for streptokinase expression inhibitor project, dose response (AID 1915); type: functional, organism-based;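 further: potency for reduction of bacterial viability or growth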
Streptokinase A = target: T1, Streptokinase A (Streptococcus pyogenes serotype M1, UniProt P10520); experiment: viability-normalized secreted streptokinase activity reduction – plasminogen activation absorbance, OD405, dose response (AID 1914); type: functional, Streptococcus pyogenes M1 GAS;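 further: secreted streptokinase activity via plasminogen activation per viability signal from cell pellet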
T1 sequence (P10520 whole entry): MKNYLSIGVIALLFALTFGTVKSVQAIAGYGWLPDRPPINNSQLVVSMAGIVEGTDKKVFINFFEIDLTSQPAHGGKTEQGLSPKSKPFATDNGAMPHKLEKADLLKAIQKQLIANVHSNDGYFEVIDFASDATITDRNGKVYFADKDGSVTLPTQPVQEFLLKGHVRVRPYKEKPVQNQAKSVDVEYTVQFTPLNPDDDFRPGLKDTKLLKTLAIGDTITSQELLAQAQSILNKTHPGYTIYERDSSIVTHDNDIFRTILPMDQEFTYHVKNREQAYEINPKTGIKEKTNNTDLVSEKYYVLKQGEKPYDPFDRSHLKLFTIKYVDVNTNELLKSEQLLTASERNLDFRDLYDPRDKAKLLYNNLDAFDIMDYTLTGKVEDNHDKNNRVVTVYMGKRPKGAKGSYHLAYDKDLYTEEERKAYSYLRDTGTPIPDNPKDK

[7] = test system: Streptococcus sp. 'group A'; experiment: Streptococcus pyogenes SK(-)GAS viability under kanamycin – luminescence, BacTiterGlo, confirmation, counter-screen for streptokinase expression inhibitor project, dose response (AID 1900); type: functional, organism-based
[8] = NIH3T3 cell viability loss – ATP luminescence, mouse fibroblasts, counter-screen, dose response (AID 2010); type: functional, cell-based;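 further: cells exposed to compound for about 90 hours before reading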
[9] = Trypanosoma cruzi growth suppression in host cells – NIH3T3 host cells, beta-gal luminescence, confirmation (AID 2044); type: functional, cell-based;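 further: intracellular parasites grown in NIH/3T3 mouse fibroblasts as host cells; luminescent beta-galactosidase reporter signal from transgenic T. cruzi replicating inside host cells; inhibitors lower the luminescence signal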
[10] = target: Aryl hydrocarbon receptor (Homo sapiens, UniProt P35869); experiment: Luminescence-based cell-based high throughput dose response assay for activators of the Aryl Hydrocarbon Receptor (AHR). [Related pubchem assays: 2796 (Primary screen (AHR activators in singlicate)), 2845 (Confirmation screen (AHR activators in triplicate)), 434939 (Counterscreen (PXR activators in triplicate)), 2804 (Summary (AHR activators))]; type: ADME
Sequence of Aryl hydrocarbon receptor (P35869 whole entry): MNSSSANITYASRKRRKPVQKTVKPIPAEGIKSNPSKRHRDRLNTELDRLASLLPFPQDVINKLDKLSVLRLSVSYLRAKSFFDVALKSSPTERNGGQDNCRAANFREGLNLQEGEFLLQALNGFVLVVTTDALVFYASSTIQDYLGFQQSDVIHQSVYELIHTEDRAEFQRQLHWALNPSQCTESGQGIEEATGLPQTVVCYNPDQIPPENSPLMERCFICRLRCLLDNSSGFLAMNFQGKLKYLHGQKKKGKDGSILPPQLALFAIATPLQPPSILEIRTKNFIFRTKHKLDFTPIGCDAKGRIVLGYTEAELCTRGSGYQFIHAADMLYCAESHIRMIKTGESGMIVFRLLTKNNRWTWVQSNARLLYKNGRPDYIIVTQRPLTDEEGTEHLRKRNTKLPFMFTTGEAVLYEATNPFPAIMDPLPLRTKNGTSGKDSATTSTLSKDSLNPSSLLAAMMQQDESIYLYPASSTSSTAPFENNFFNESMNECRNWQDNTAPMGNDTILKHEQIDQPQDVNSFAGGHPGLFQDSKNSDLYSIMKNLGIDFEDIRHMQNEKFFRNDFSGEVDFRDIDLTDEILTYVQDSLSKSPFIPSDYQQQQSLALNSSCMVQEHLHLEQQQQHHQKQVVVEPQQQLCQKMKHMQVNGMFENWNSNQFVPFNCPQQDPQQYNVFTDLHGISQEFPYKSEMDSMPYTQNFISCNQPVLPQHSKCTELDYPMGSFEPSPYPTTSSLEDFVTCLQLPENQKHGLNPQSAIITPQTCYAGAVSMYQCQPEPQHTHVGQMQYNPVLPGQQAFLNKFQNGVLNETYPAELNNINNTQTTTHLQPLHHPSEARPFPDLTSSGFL

NADPH oxidase 1 = NADPH oxidase 1 (Homo sapiens, UniProt Q9Y5S8); experiment: Late-stage luminescence-based cell-based dose response assay to identify inhibitors of NADPH oxidase 1 (NOX1): Purchased analogs 2.; type: functional
Sequence of NADPH oxidase 1 (Q9Y5S8 whole entry): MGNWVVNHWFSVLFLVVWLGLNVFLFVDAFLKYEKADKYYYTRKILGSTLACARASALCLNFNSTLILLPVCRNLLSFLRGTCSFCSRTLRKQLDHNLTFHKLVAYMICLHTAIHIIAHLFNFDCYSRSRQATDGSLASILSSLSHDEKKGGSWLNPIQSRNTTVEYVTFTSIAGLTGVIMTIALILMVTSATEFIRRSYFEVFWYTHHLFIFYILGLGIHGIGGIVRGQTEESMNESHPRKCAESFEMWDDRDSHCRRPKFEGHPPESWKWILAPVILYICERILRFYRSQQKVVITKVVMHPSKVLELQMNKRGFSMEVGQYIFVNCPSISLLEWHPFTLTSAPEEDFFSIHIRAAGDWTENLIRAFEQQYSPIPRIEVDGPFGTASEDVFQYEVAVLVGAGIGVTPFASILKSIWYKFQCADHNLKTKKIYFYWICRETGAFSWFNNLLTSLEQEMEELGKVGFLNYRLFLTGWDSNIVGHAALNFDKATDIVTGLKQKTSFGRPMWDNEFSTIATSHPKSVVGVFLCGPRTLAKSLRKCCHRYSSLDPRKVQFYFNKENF

[11] = target: Heat shock protein HSP 90-alpha (Homo sapiens, UniProt P07900); experiment: Luminescence-based dose response biochemical high throughput screening assay for inhibitors of the Heat Shock Protein 90 (HSP90). [Related pubchem assays: 1831 (Summary AID.), 1846 (Confirmation screen.), 1789 (Primary screen.)]
[12] = target: T2, Apoptotic protease-activating factor 1 (Homo sapiens, UniProt O14727); type: functional
T2 sequence (O14727 whole entry): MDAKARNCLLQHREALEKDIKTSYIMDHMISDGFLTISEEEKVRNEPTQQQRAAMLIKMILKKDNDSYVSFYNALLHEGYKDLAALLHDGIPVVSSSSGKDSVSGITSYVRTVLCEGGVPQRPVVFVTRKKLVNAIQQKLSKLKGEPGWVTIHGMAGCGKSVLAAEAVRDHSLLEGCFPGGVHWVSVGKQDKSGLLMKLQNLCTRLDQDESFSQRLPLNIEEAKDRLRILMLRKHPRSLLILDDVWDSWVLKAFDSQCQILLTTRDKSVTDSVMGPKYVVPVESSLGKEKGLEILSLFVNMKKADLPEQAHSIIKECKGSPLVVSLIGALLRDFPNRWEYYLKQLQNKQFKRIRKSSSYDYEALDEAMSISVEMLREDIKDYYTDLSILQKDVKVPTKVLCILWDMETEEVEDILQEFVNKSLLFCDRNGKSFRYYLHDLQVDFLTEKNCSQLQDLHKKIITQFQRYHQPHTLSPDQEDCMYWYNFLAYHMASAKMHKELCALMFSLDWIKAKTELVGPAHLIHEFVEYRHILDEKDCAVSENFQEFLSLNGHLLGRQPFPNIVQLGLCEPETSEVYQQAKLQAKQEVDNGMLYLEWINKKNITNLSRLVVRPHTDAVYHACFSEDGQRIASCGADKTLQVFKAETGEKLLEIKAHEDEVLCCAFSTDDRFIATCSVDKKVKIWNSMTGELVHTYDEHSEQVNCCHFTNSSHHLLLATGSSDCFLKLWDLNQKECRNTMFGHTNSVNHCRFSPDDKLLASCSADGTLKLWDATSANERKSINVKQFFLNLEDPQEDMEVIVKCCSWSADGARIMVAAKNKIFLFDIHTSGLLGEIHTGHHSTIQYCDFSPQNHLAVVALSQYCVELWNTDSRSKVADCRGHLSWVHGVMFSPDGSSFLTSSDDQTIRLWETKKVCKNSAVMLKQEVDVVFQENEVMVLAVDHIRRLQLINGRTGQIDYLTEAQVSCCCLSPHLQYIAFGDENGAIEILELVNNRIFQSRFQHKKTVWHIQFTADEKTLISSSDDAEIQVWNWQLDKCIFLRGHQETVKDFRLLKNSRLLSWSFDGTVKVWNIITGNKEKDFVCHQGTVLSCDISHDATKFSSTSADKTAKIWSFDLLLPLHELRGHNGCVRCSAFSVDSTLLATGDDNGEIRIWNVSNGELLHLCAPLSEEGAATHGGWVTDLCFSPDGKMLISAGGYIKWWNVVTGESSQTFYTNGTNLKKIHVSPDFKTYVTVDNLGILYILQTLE

[13] = target: T3, Ubiquitin-conjugating enzyme E2 N (Homo sapiens, UniProt P61088); type: functional
T3 sequence (P61088 whole entry): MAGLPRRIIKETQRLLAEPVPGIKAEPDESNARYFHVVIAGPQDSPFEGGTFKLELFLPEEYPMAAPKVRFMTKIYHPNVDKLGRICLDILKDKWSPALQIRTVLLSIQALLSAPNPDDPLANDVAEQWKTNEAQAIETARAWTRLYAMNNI

Bcl-2-related protein A1 = target: T4, Bcl-2-related protein A1 (Mus musculus, UniProt Q07440); type: functional;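 further: confirmatory dose–response counterscreen on Bfl-1, used to check hits from a UBC13 polyubiquitin inhibitor campaign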
T4 sequence (Q07440 whole entry): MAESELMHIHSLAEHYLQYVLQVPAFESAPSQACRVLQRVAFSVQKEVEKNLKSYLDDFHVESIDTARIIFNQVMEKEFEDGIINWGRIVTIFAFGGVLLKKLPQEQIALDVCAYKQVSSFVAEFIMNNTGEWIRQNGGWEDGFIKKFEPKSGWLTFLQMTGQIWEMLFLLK

[14] = target: T3, Ubiquitin-conjugating enzyme E2 N; type: functional; remark: listed apart in the source
Oxytocin receptor = Oxytocin receptor (Homo sapiens, UniProt P30559); experiment: Counterscreen for vasopressin 1 receptor (V1R) agonists: Fluorescence-based cell-based high throughput dose response assay for agonists of the Oxytocin Receptor (OXTR). [Related pubchem assays: 2435 (Primary screen (OXTR agonists in singlicate)), 434964 (Confirmation screen (V1R agonists in triplicate)), 434969 (Counterscreen (OXTR agonists in …; type: functional
Vasopressin V1a receptor = Vasopressin V1a receptor (Homo sapiens, UniProt P37288); experiment: Fluorescence-based cell-based high throughput dose response screening assay for agonists of the vasopressin 1 receptor (V1R).; type: functional
Sequence of Vasopressin V1a receptor (P37288 whole entry): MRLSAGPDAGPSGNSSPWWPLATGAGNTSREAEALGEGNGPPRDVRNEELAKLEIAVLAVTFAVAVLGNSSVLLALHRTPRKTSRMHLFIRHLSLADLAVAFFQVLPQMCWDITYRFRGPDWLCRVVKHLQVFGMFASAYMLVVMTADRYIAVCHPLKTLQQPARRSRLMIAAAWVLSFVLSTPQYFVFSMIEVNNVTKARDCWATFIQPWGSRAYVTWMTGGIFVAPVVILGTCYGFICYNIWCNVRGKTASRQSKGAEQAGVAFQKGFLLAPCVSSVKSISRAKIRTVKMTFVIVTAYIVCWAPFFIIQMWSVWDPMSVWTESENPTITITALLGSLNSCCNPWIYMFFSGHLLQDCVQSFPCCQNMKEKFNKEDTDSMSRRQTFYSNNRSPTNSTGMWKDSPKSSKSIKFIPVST

Cc1cc(C)c(S(=O)(=O)/N=C2/C=C(Sc3nc[nH]n3)C(=O)c3ccccc32)cc1C
AC50 (INS1): 2.6 µM (active)
IC50 [1]: 3.07 µM (active)
IC50 [2]: 4.19 µM (active)
EC50 [3]: > 104 µM (inactive)
IC50 [4]: 18.6 µM (not active)

CCOC(=O)C1CCN(C(=S)Nc2cc(C)ccc2C)CC1
EC50 [5]: 4.34 µM (not active)

CC(C)COc1ccc(-c2nn(-c3ccccc3)cc2C(=O)Nc2nccs2)cc1
EC50 [6]: 1.04 µM (active)
EC50 (Streptococcus): > 150 µM (not active)
EC50 (Streptokinase A): > 150 µM (not active)
EC50 [7]: 48.3 µM (active)
EC50 [8]: > 30 µM (not active)
EC50 [9]: 2.21 µM (active)

COc1ccc(NC(=O)c2cccc3c(Br)cccc23)cc1
EC50 [10]: 0.965 µM (active)

COc1ccc(NS(=O)(=O)Cc2ccc(N)cc2)cc1
IC50 (NADPH oxidase 1): > 17 µM (not active)

COC(=O)c1ccccc1OCCCOc1ccc(C=O)cc1OC
IC50 [11]: 0.314 µM (active)

C#CCOCCOCCOCCNc1nc(N2CCN(C(=O)CCCCCCCCCCNC(=O)[C@@H](CCC(=O)O)n3cc(CCCCCN)nn3)CC2)nc(N2CCN(C(=O)CCCCCCCCCCNC(=O)[C@H](CCCCN)n3cc(C[C@@H](C)CC)nn3)CC2)n1
IC50 [12]: 27.2 µM (active)
IC50 [13]: 11.4 µM (active)
IC50 (Bcl-2-related protein A1): > 20 µM (inactive)
IC50 [14]: 4.52 µM (active)
EC50 (Oxytocin receptor): > 29.9 µM (not active)
EC50 (Vasopressin V1a receptor): 8.37 µM (active)
